According to patent US8648068B2, “Heterocycloalkyl-containing thienopyrimidines for pharmaceutical compositions” (Boehringer Ingelheim International GmbH, priority 2010, dated 2014):
pIC50: −log10 of the molar value.

Molecular target: T1, human Mnk2a (Homo sapiens, UniProt Q9HBH9)
T1 construct: made in house; host or cells: E. coli BL21 (vector pGEX-4T1)
Assay: Mnk2a in vitro kinase assay (indirect fluorescence polarization)
Format: biochemical
Conditions: GST-Mnk2a pre-activated with ERK2, 20 μM ATP, 30 μM substrate peptide; read-out: MNK2 IC50
Description: Inhibitory potency of compounds against Mnk1, Mnk2a and other kinases was assessed with assays based on a format known to those skilled in the art as the indirect (competitive) fluorescence polarization. The assay detection system comprises a small fluorophore-labeled phospho-peptide (termed ligand) bound to a phospho-specific antibody. The product generated by the kinase reaction competes with the ligand for antibody binding. Based on the larger molecular volume of the bound ligand, which results in a lower rotation rate in solution, its emitted light has a higher degree of polarization than the one from the free ligand.
As a source of enzyme, human Mnk1 and human Mnk2a were expressed as GST fusion proteins in E. coli, purified to >80% homogeneity by glutathione affinity chromatography and activated in vitro with pre-activated ERK2. In brief, the open reading frames of human Mnk1 and Mnk2a were amplified from cDNA using the forward/reverse primer pairs
(utilized restriction sites underlined), respectively, and cloned into the BamHI and SalI sites of the vector pGEX-4T1 (Amersham, Sweden, cat. no. 27-4580-01). These constructs allow prokaryotic expression of Mnk1 or Mnk2a as fusion protein with a N-terminal glutathione S-transferase (GST) tag, referred to as GST-Mnk1 or GST-Mnk2a. The following expression and purification procedure was identical for GST-Mnk1 and GST-Mnk2a, referring in general to GST-Mnk, when not distinguishing between the two isoforms. Expression of GST-Mnk was in E. coli BL21 (Merck Biosciences, Germany, cat. no. 69449). Cells were grown in LB-Bouillon (Merck, Germany, cat. no. 1.10285) supplemented with 100 μg/ml ampicillin (Sigma, Germany, cat. no. A9518) at 37° C. When the culture had reached a density corresponding to an A600 of 0.8, an equal volume of ice cold LB/ampicillin was added, the culture transferred to 25° C. and induced for 4 h with 1 mM isopropyl thiogalactoside (IPTG, Roth, Germany, cat. no. 2316.4). Cells harvested by centrifugation were resuspended in 10 ml lysis buffer (50 mM tris(hydroxymethyl)aminomethane hydrochloride (Tris/HCl, Sigma, Germany, cat. no. T5941) pH 7.5, 300 mM sodium chloride (NaCl, Sigma, Germany, cat. no. S7653), 5% (w/v) glycerol (Sigma, Germany, cat. no. G5516), 3 mM DTT dithiotreitol (DTT, Sigma, Germany, cat. no. D9779)) per gram wet weight cell pellet. Lysates were prepared by disruption of cells with a sonifier and subsequent clearing by centrifugation at 38000 g for 45 min at 4° C.
The lysate was applied to a GSTPrep FF 16/10 column (Amersham, Sweden, cat. no. 17-5234-01) equilibrated with lysis buffer. Removal of unbound material was with 3 column volumes (CV) lysis buffer. Elution was with 2 CV of elution buffer (50 mM Tris/HCl pH 7.5, 300 mM NaCl, 5% (w/v) glycerol, 20 mM glutathione (Sigma, Germany, cat. no. G4251)). Peak fractions were pooled and the protein transferred into storage buffer (50 mM Tris/HCl pH 7.5, 200 mM NaCl, 0.1 mM ethylene glycol-bis(2-aminoethylether)-N,N,N′,N′-tetraacetic acid (EGTA, Aldrich, Germany, cat. no. 23, 453-2), 1 mM DTT, 10% (w/v) glycerol, 0.5 M sucrose (Sigma, Germany, cat. no. SO389) by gel filtration on a PD10 desalting column (Amersham, Sweden, cat. no. 17-0851-01). Aliquots were shock frozen in liquid nitrogen and stored at −80° C.
Activation of Mnk1 and Mnk2a was at a concentration of 2.5 μM of either purified GST-Mnk1 or GST-Mnk2a by incubation with 150 nM pre-activated NHis-ERK2 (see ERK2 assay for preparation) and 50 μM adenosine triphosphate (ATP, Sigma, cat. no. A2699) in a buffer comprising 20 mM N-(2-hydroxyethyl)piperazine-N′-(2-ethanesulfonic acid) (HEPES, Fluka, Germany, cat. no 54459)/potassium hydroxide (KOH, Roth, Germany, cat. no 6751.1) pH 7.4, 10 mM magnesium chloride (MgCl2, Sigma, Germany, cat. no. M2670), 0.25 mM DTT, 0.05% (w/v) polyoxyethylene 20 stearylether (Brij 78, Sigma, Germany, cat. no. P4019) (HMDB buffer) for 45 min at 30° C. […]

T1 sequence (Q9HBH9 whole entry): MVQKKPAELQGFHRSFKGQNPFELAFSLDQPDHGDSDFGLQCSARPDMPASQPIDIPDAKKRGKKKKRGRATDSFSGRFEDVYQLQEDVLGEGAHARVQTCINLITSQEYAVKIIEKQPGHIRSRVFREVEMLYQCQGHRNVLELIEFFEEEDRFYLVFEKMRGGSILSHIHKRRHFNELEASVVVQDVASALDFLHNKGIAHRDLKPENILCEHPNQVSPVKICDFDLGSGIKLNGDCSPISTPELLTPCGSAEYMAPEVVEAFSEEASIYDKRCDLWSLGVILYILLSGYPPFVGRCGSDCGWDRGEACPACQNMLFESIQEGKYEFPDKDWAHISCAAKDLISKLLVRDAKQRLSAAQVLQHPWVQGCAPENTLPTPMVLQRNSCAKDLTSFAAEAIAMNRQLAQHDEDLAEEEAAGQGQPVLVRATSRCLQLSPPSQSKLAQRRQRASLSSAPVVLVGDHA

SMILES	pIC50
CCC(C)CNC(=O)c1sc2ncnc(Nc3ccc(F)cc3OC3CCCNC3)c2c1C (stereo not shown) [Example 20]	7.17
Cc1c(C(=O)NCC(C)(C)C)sc2ncnc(Nc3ccc(F)cc3OC3CCCNC3)c12 (stereo not shown) [Example 21]	7.12
Cc1c(C(=O)NCC2CCOC2)sc2ncnc(Nc3ccc(F)cc3OC3CCCNC3)c12 (stereo not shown) [Example 24]	7.21
Cc1c(C(=O)NCC2CCCO2)sc2ncnc(Nc3ccc(F)cc3OC3CCCNC3)c12 (stereo not shown) [Example 25]	7.09
CCC(CC)CNC(=O)c1sc2ncnc(Nc3ccc(F)cc3OC3CCCNC3)c2c1C (stereo not shown) [Example 26]	7.22
Cc1c(C(=O)NCCc2cn[nH]c2)sc2ncnc(Nc3ccc(F)cc3OC3CCCNC3)c12 (stereo not shown) [Example 28]	7.19
Cc1c(C(=O)N(C)CC2CCCCC2)sc2ncnc(Nc3ccc(F)cc3OC3CCCNC3)c12 (stereo not shown) [Example 36]	6.10
Cc1c(C(=O)NCCc2cccs2)sc2ncnc(Nc3ccc(F)cc3OC3CCCNC3)c12 (stereo not shown) [Example 37]	7.17
Cc1c(C(=O)NCCOC(F)(F)F)sc2ncnc(Nc3ccc(F)cc3OC3CCCNC3)c12 (stereo not shown) [Example 38]	7.00
Cc1c(C(=O)NCCCC2CCOC2)sc2ncnc(Nc3ccc(F)cc3OC3CCCNC3)c12 (stereo not shown) [Example 39]	7.24
Cc1c(C(=O)NCCOc2ccccc2)sc2ncnc(Nc3ccc(F)cc3OC3CCCNC3)c12 (stereo not shown) [Example 44]	7.19
Cc1c(C(=O)NCC(C)(C)Cl)sc2ncnc(Nc3ccc(F)cc3OC3CCCNC3)c12 (stereo not shown) [Example 48]	7.12
Cc1c(C(=O)NCC(C)(C)O)sc2ncnc(Nc3ccc(F)cc3OC3CCCNC3)c12 (stereo not shown) [Example 49]	7.00
Cc1c(C(=O)NCCOCCO)sc2ncnc(Nc3ccc(F)cc3OC3CCCNC3)c12 (stereo not shown) [Example 50]	7.14
Cc1c(C(=O)NC[C@@H]2CCC(=O)N2)sc2ncnc(Nc3ccc(F)cc3OC3CCCNC3)c12 (stereo partly shown) [Example 51]	6.80
CCN1CCC[C@@H]1CNC(=O)c1sc2ncnc(Nc3ccc(F)cc3OC3CCCNC3)c2c1C (stereo partly shown) [Example 52]	6.89
Cc1c(C(=O)NCc2cccc3ccccc23)sc2ncnc(Nc3ccc(F)cc3OC3CCCNC3)c12 (stereo not shown) [Example 58]	7.19
Cc1c(C(=O)NCc2cccc3ccccc23)sc2ncnc(Nc3ccc(F)cc3OC3CCCNC3)c12 (stereo not shown) [Example 60]	7.19
Cc1c(C(=O)NCC(c2cccnc2)N(C)C)sc2ncnc(Nc3ccc(F)cc3OC3CCCNC3)c12 (stereo not shown) [Example 62]	6.96
Cc1c(C(N)=O)sc2ncnc(Nc3ccc(C(F)(F)F)cc3O[C@H]3CCCNC3)c12 [Example 65, 5-Methyl-4-[2-((S)-piperidin-3-yloxy)-4-trifluoromethyl-phenylamino]-thieno[2,3-d]pyrimidine-6-carboxylic acid amide]	6.72
Cc1ccc(Nc2ncnc3sc(C(N)=O)c(C)c23)c(O[C@H]2CCCNC2)c1 [Example 68, 4-[4-Methyl-2-((S)-piperidin-3-yloxy)-phenylamino]-5-methyl-thieno[2,3-d]pyrimidine-6-carboxylic acid amide]	7.10

Now those with a higher pIC50, led by results:

pIC50	SMILES
7.33	Cc1c(C(=O)NCC2CC2)sc2ncnc(Nc3ccc(F)cc3OC3CCCNC3)c12 (stereo not shown) [Example 19]
7.59	Cc1c(C(=O)NCc2ccco2)sc2ncnc(Nc3ccc(F)cc3OC3CCCNC3)c12 (stereo not shown) [Example 22]
7.32	Cc1c(C(=O)NCc2ncco2)sc2ncnc(Nc3ccc(F)cc3OC3CCCNC3)c12 (stereo not shown) [Example 23]
7.32	Cc1c(C(=O)NCc2ccccc2)sc2ncnc(Nc3ccc(F)cc3OC3CCCNC3)c12 (stereo not shown) [Example 27]
7.28	Cc1c(C(=O)NCC2CCCCC2)sc2ncnc(Nc3ccc(F)cc3OC3CCCNC3)c12 (stereo not shown) [Example 29]
7.47	Cc1c(C(=O)NCc2cccs2)sc2ncnc(Nc3ccc(F)cc3OC3CCCNC3)c12 (stereo not shown) [Example 30]
7.37	Cc1c(C(=O)NCc2nccs2)sc2ncnc(Nc3ccc(F)cc3OC3CCCNC3)c12 (stereo not shown) [Example 31]
7.26	Cc1c(C(=O)NCC2CCOCC2)sc2ncnc(Nc3ccc(F)cc3OC3CCCNC3)c12 (stereo not shown) [Example 32]
7.25	Cc1cccc(CNC(=O)c2sc3ncnc(Nc4ccc(F)cc4OC4CCCNC4)c3c2C)c1 (stereo not shown) [Example 33]
7.46	Cc1c(C(=O)NCc2ccc(O)cc2)sc2ncnc(Nc3ccc(F)cc3OC3CCCNC3)c12 (stereo not shown) [Example 34]
7.28	Cc1c(C(=O)NCc2cccc(F)c2)sc2ncnc(Nc3ccc(F)cc3OC3CCCNC3)c12 (stereo not shown) [Example 35]
7.46	Cc1c(C(=O)NCC2CCCCC2O)sc2ncnc(Nc3ccc(F)cc3OC3CCCNC3)c12 (stereo not shown) [Example 40]
7.51	Cc1c(C(=O)NCc2ccccc2C#N)sc2ncnc(Nc3ccc(F)cc3OC3CCCNC3)c12 (stereo not shown) [Example 41]
7.39	Cc1c(C(=O)NCC(=O)c2ccccc2)sc2ncnc(Nc3ccc(F)cc3OC3CCCNC3)c12 (stereo not shown) [Example 42]
7.25	Cc1c(C(=O)NCCNc2ccccc2)sc2ncnc(Nc3ccc(F)cc3OC3CCCNC3)c12 (stereo not shown) [Example 43]
7.44	COc1ccc(CNC(=O)c2sc3ncnc(Nc4ccc(F)cc4OC4CCCNC4)c3c2C)cc1 (stereo not shown) [Example 45]
7.82	Cc1c(C(=O)NCCc2ccc(O)cc2)sc2ncnc(Nc3ccc(F)cc3OC3CCCNC3)c12 (stereo not shown) [Example 46]
7.29	Cc1c(C(=O)NCCS(=O)(=O)N(C)C)sc2ncnc(Nc3ccc(F)cc3OC3CCCNC3)c12 (stereo not shown) [Example 47]
7.34	Cc1c(C(=O)NCCC2CCCN2C)sc2ncnc(Nc3ccc(F)cc3OC3CCCNC3)c12 (stereo not shown) [Example 53]
7.29	Cc1c(C(=O)NCC2CN(C)CCO2)sc2ncnc(Nc3ccc(F)cc3OC3CCCNC3)c12 (stereo not shown) [Example 55]
7.31	Cc1c(C(=O)NCCCc2ccncc2)sc2ncnc(Nc3ccc(F)cc3OC3CCCNC3)c12 (stereo not shown) [Example 56]
7.37	Cc1c(C(=O)NCc2cc(F)ccc2F)sc2ncnc(Nc3ccc(F)cc3OC3CCCNC3)c12 (stereo not shown) [Example 57]
7.32	Cc1c(C(=O)NCc2ccc(Cl)c(F)c2)sc2ncnc(Nc3ccc(F)cc3OC3CCCNC3)c12 (stereo not shown) [Example 59]
7.42	Cc1c(C(=O)NCc2ccc3sccc3c2)sc2ncnc(Nc3ccc(F)cc3OC3CCCNC3)c12 (stereo not shown) [Example 61]
7.37	Cc1c(C(=O)NCc2ccc(OC(C)C)cc2)sc2ncnc(Nc3ccc(F)cc3OC3CCCNC3)c12 (stereo not shown) [Example 63]
7.68	Cc1c(C(=O)Nc2ccn(C)n2)sc2ncnc(Nc3ccc(F)cc3O[C@H]3CCCNC3)c12 [Example 64, 4-[4-Fluoro-2-((S)-piperidin-3-yloxy)-phenylamino]-5-methyl-thieno[2,3-d]pyrimidine-6-carboxylic acid (1-methyl-1H-pyrazol-3-yl)-amide]
8.00	Cc1c(C(N)=O)sc2ncnc(Nc3ccc(Cl)cc3O[C@H]3CCCNC3)c12 [Example 66, 4-[4-Chloro-2-((S)-piperidin-3-yloxy)-phenylamino]-5-methyl-thieno[2,3-d]pyrimidine-6-carboxylic acid amide]
7.34	Cc1c(C(N)=O)sc2ncnc(Nc3ccc(C#N)cc3O[C@H]3CCCNC3)c12 [Example 67, 4-[4-Cyano-2-((S)-piperidin-3-yloxy)-phenylamino]-5-methyl-thieno[2,3-d]pyrimidine-6-carboxylic acid amide]
